# Measurements published in patent publication US9975944B2, “Synthetic peptides for the treatment of autoimmune diseases” (TEL HASHOMER MEDICAL RESEARCH INFRASTRUCTURE AND SERVICES …, priority 2013, dated 2018).
# What was measured:
# TGF-β = TGF-β gene expression in mononuclear cells derived from synovial fluid of RA patients, real-time PCR; assay type: cell-based, human; conditions: 24 h, compared to the non-citrullinated peptides
# Protocol: (§1) To assess the effect of the Cit-ME peptide (SEQ ID NO: 1) on inflammatory related genes expression, peripheral blood mononuclear cells derived from synovial fluid rheumatoid arthritis patients were incubated with the Cit-ME multi-epitope citrullinated peptide for 24 h. The effect of the peptide on gene expression was compared also to the effect of infliximab, a TNF-α blocker, which is an antirheumatic drug that acts as an anti-inflammatory compound. […] Results were determined by real-time PCR.
# TNF-α = TNF-α gene expression in mononuclear cells derived from synovial fluid of RA patients, real-time PCR; assay type: cell-based, human; conditions: 24 h, compared to the non-citrullinated peptides
# Protocol: as §1
# IFN-γ = IFN-γ gene expression in mononuclear cells derived from synovial fluid of RA patients, real-time PCR; assay type: cell-based, human; conditions: 24 h, compared to the non-citrullinated peptides
# Protocol: as §1
# CD4+CD25+Foxp3+ T cells = test: Regulatory T cell proportion in PBMC of RA patients, FACS; assay type: cell-based, human; conditions: 1.25 μg/ml peptide, 48 hours, compared with non-citrullinated matched peptide
# Protocol: Given the observed immunomodulation of cytokines following incubation of peripheral blood mononuclear cells obtained from rheumatoid arthritis patients with citrullinated peptides, the citrullinated peptides were tested for their ability to exert an effect on the T regulatory population proportion. Peripheral blood mononuclear cells of rheumatoid arthritis patients were cultured in the presence of 1.25 μg/ml of the peptides (Fil-Cit, β-Fib-Cit, and Cit-ME; FIGS. 6A, 6B and 6E, respectively, and Fil-NC, β-Fib-NC and Non-Cit-ME; FIGS. 6C, 6D and 6G, respectively), and Infliximab (FIG. 6F) for 48 hours. Cells cultured with medium devoid of the peptides and Infliximab served as control (FIG. 6H). Thereafter, cells were stained for the expression of CD4, CD25, and FoxP3 and analyzed by FACS. […] Mean percentage of CD4^+CD25^+Foxp3^+ T cells in the presence of Infliximab was increased by 14% as compared to medium (FIG. 6F and FIG. 6H, respectively). Thus, citrullinated peptides are able to induce the expansion of the T regulatory cell population.
# pathogenic Th17 cells = test: Pathogenic Th17 cell proportion in PBMC of RA patients, FACS; assay type: cell-based, human; conditions: 48 hours, PMA, ionomycin and brefeldin A in last 4 hours, compared with non-citrullinated matched peptide
# Protocol: To assess ability of the citrullinated peptides to affect the pathogenic Th17 cells population proportion, peripheral blood mononuclear cells of rheumatoid arthritis patients were cultured in the presence of citrullinated peptides, non-citrullinated peptides and Infliximab for 48 hours. In the last 4 hours phorbol12-myristate 13-acetate (PMA), ionomycin and brefeldin A were added to the culture. Thereafter cells were stained with antibodies against CD3 and IL-17. As shown in FIGS. 7A-7H, significant down-regulation in the mean percentage of pathogenic Th17 cells was detected following incubation with the citrullinated peptides: decrease of 21% (Fil-Cit; E), 5% (β-Fib-Cit; F), and 26% (Cit-ME; G) as compared with the non-citrullinated matched peptides (FIG. 7A-7C, respectively). Mean percentage of pathogenic Th17 cells in the presence of Infliximab was decreased by 48% (FIG. 7H) as compared to medium (FIG. 7D).
# T cells = T cells apoptosis in PBMC of RA patients, annexin V/PI FACS; assay type: cell-based, human; conditions: 24 hours, gated on PI negative cells, compared with matched non-citrullinated peptide
# Protocol: To assess the ability of the citrullinated peptides to affect T cells apoptosis, peripheral blood mononuclear cells of rheumatoid arthritis patients were cultured in the presence of citrullinated, non-citrullinated peptides and Infliximab for 24 hours. Cells were double-stained for annexin V-fluorescein isothiocyanate (FITC) and PI-PE (apoptosis/necrosis markers) and analyzed by FACS. The results in FIG. 8 are presented after gating for PI negative cells (live cells). The β-Fib-Cit and Cit-ME (FIGS. 8A and 8B, respectively) induced T cells apoptosis (by 20% and 18%, respectively) as compared with the non-citrullinated peptides Non-Cit-β-Fib (FIG. 8D) and Non-Cit-ME (FIG. 8E). Infliximab induced apoptosis by 28% (FIG. 8C) as compared with the medium control (FIG. 8F).
# AIA rats = test: Adjuvant-Induced Arthritis (AIA) in rats, paw swelling and clinical signs; assay type: in vivo, rat
# [1] = tested on: CD4+CD25+FoxP3+ regulatory T cells; test: Regulatory T cells in splenocytes of AIA rats, FACS; assay type: in vivo, rat
# Source text: Splenocytes from rats at day 28 post disease induction were stained with anti-CD4-FITC, anti-CD25-APC, and anti-Foxp3-PE (eBioscience) mAbs and analyzed by FACS. In representative outputs as shown in FIG. 12A-C, Regulatory T cells subpopulation was higher in Cit-ME treated rats (9%), compared to 7% and 6.2% in Non-Cit-ME peptide and untreated rats, respectively. Statistical analysis of the results is shown in FIG. 12D (Cit-ME n=9, Non-Cit-ME n=11, untreated rats n=7).
# CD4+IL-17+ T cells = CD4+IL-17+ T cells in the spleen of AIA rats, FACS; assay type: in vivo, rat
# Protocol: Distribution of pathogenic CD4^+IL-17^+ T cells in the spleen of experimental rats was assessed by FACS.
# IL-17 = IL-17 mRNA expression in the spleen of AIA rats, RT-PCR; assay type: in vivo, rat; conditions: spleens of AIA rats, 8 rats per treatment, compared to control
# Protocol: To validate the effect of the peptides on CD4^+IL-17^+ populations as determined by FACS, the expression of IL-17 in the spleen was evaluated using RT-PCR. cDNA was extracted from the spleens of 8 rats per treatment (including control), and gene expression of IL-17 was assessed using the following RT-PCR primers: forward 5′-TGGCGGTTCTCCTTCAGTC-3′ (SEQ ID NO: 17) and reverse 5′-[…]-3′ (SEQ ID NO: 18). […] Thus, the RT-PCR data was in line with the FACS analyses.
substance,measurement,setting,value
VCitLCitSSVESTCitGRSCitPAPPPACitGLT [Cit-ME],expression of TGF-β,TGF-β,up-regulated
same,expression of TNF-α,TNF-α,down-regulated
same,expression of IFN-γ,IFN-γ,down-regulated
same,increase in mean percentage of CD4+CD25+Foxp3+ T cells,CD4+CD25+Foxp3+ T cells,12%
same,decrease in mean percentage of pathogenic Th17 cells,pathogenic Th17 cells,26%
same,induction of T cells apoptosis,T cells,18%
same,mean paw swelling / arthritis signs,"AIA rats; AIA Lewis female rats, 10 subcutaneous injections of 300 μg/rat on alternate days from day 7, up to day 21 post disease induction",significant reduced mean paw swelling
same,maximum value of mean paw diameter,"AIA rats; AIA rats, 8 subcutaneous injections of 300 μg per rat on alternate days from day 7, mean±SE, untreated 4.61±0.17 on day 14",3.81±0.11 mm
same,arthritis severity / symptoms at day 27 after disease induction,"AIA rats; AIA rats, 10 subcutaneous injections of 300 μg/rat on alternate days, compared with β-Fib-Cit and untreated rats",reduced the arthritis severity
same,"percentage of CD4+CD25+FoxP3+ regulatory T cells subset, statistical analysis","[1]; spleens of AIA rats, day 28, untreated 7.17±0.31",8.13±0.17%
same,"Regulatory T cells subpopulation, representative outputs","[1]; splenocytes of AIA rats, day 28 post disease induction, untreated 6.2%",9%
same,"population of CD4+IL-17+-expressing splenocytes, statistical analysis","CD4+IL-17+ T cells; AIA rats, n=8, untreated 1.14±0.2",0.68±0.1
same,"IL-17+ population, representative results","CD4+IL-17+ T cells; spleen of AIA rats, untreated 2%",0.6%
same,mean relative expression level of IL-17 mRNA,IL-17,significant reduction
